# From patent US20190167593A1, “C[…] PHARMACEUTICALLY ACCEPTABLE SALT THEREOF, AND APPLICATION OF SAME” (priority 2016, published 2019)
# pIC50: −log10 of the molar value. “And” between values parts separate entries of the source, which are not always exact repeats. Equal entries are not always repeated. “Also recorded” adds a separate entry of the source.
# Legend:
# H274Y virus = format: cell-based; details: read-out: IC50 against influenza virus replication (plaque formation), H274Y
# [1] = test system: NAI drug-resistant mutant stain H274Y-PR8 virus; design: species or system BALB/c mice; details: mouse, in vivo
# [2] = test system: H274Y mutant influenza virus; details: background statement; cited from earlier work
Molecule,pIC50 (H274Y virus),body weight [1],disease symptoms [1],mortality rate [1] [%],decrease of activity due to the resistance caused by the mutation of H274Y [2],body weight decrease [1]
"CCCCS(=O)(=O)N[C@@H]1CCCN([C@@H]2C=C(C(=O)O)C[C@H](NC(=N)N)[C@H]2NC(C)=O)C1 [(3R,4R,5S)-4-acetamido-5-guanidino-3-((3R)-3-n-butylsulfonamidopiperidin)-1-cyclohexene-1-carboxylic acid]",6.89 and 6.88,basically the same as that of the uninfected control mice; also recorded: decreased significantly,no symptoms of any diseases,20,,
"CCOC(=O)C1=C[C@@H](OC(CC)CC)[C@H](NC(C)=O)[C@@H](N)C1.O=P(O)(O)O [Oseltamivir phosphate, ethyl (3R, 4R, 5S)-4-acetamido-5-amino-3-(1-ethylpropoxy)-1-cyclohexene-1-carboxylate phosphate]",4.82,,obvious disease symptoms,40,more than 300 times,
Peramivir,6.19,significant weight decline,mild disease symptoms; also recorded: obvious disease symbols,60,,about 6%
